Our source for the EC50, IC50 and outcome values is PubChem BioAssay AID179 (DTP/NCI, 2004).

This assay concerns CEM cells HIV-1 protection, formazan growth assay. The assay is described as follows: NCI AIDS Antiviral Assay. To be noted: for IC50: measured here: growth of uninfected CEM cells. The method in brief:
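Protection of CEM cells against HIV-1 was scored from cell growth (soluble formazan) across five concentrations, with parallel uninfected cells. Lack of protection may reflect toxicity.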

Calls of active or inactive are those of the source.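 How the source made its calls: active means compounds giving half or more protection of infected cells from virus-caused growth loss, again on retest; inactive means the rest.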 Where a SMILES comes first, the peptide text is derived from it.

One may read the EC50 as the concentration giving half of the maximal effect. Usually IC50 stands for the concentration at which inhibition is half-maximal.

For the compound `CCOC(=O)c1sc2[n+](c1C)C(=O)/C(=C/c1cc(OC)c(OC)c(OC)c1)S2`, the EC50 is more than 200 µM and the IC50 was determined as 12.9 µM.

On to `O=C(O)CSCCCCSCC(=O)O`, for which the EC50 was more than 1050 µM and the IC50 was more than 1050 µM.

Take `CCOC(=O)C(C)(NC(=O)c1ccc(NCc2ccc3nc(NC(=O)c4ccccc4)nc(NC(=O)c4ccccc4)c3c2)cc1)C(=O)OCC`: the EC50 was more than 50.1 µM and the IC50 is 32.4 µM.

For the compound `O=C(NC12CC3CC(CC(C3)C1)C2)C(=O)c1c[nH]c2ccc([N+](=O)[O-])cc12`, the EC50 was more than 200 µM and the IC50 came to 30.2 µM.

As to `CCC(C)C(N)CO` (configuration not stated), the EC50 is more than 200 µM and the IC50 was more than 200 µM.

As to `NC(N)=NS(=O)(=O)c1ccc(N=c2c3ccccc3n(Cc3ccccc3)c3ccccc23)cc1`, the result was inactive.

On to `O=c1[nH]c2cc(F)c(F)cc2nc1Cc1ccccc1`, for which the EC50 is more than 200 µM and the IC50 turned out to be 132 µM.

In the case of `COC(=O)N/N=C(/Cc1occc(=O)c1O)C(=O)Nc1ccc([N+](=O)[O-])cc1[N+](=O)[O-]`, the EC50 was more than 575 µM and the IC50 is more than 575 µM.

On to `COc1cc(/C=C/c2ccc(/C=C/c3cc(OC)c(OC)c(OC)c3)cc2)cc(OC)c1OC`, for which the result was inactive.

`Cc1cccc2c(=O)c3c(O)cc(O)cc3[nH]c12`: the EC50 is more than 200 µM and the IC50 is 14.5 µM.

Consider `CCc1cc2c(c3[nH]ccc13)[C@@H](C)C[C@H]2C`, for which the outcome was inactive.

Regarding `CCOC(=O)C(C(=O)OCC)C(=S)NC1OC(COC(C)=O)C(OC(C)=O)C(OC(C)=O)C1OC(C)=O` (configuration not stated), the EC50 was more than 200 µM and the IC50 is more than 200 µM.

In the case of `C=CCC1C(=O)C(C(=O)OC)N2CCc3c([nH]c4ccccc34)C12` (configuration not stated), the EC50 was more than 282 µM and the IC50 is 138 µM.

For `CCOC(=O)C[C@@]12CCCNC1(C)CCc1ccccc12` (some centres not stated), the outcome was inactive.

With `O=C1NC(=S)NC1C(Cc1ccccc1)c1ccccc1` (configuration not stated), the EC50 was more than 200 µM and the IC50 worked out at 85.1 µM.

For the compound `CCC(C)C(NC(=O)C(CCCN=C(N)N)NC(=O)C(CC(N)=O)NC(=O)C(Cc1ccc(O)cc1)NC(=O)C(N)CC(C)C)C(=O)NC(C(=O)NC(CC(C)C)C(=O)NC(CCCN=C(N)N)C(=O)NC(Cc1ccc(O)cc1)C(=O)O)C(C)CC` (configuration not stated) (H-LYNRIILRY-OH; configuration not given here), the EC50 was more than 40.7 µM and the 50% inhibitory concentration (IC50) came out at 23.4 µM.

`CCN(CC)CCN1C(=O)c2cccc3cc([N+](=O)[O-])cc(c23)C1=O`: the EC50 is more than 200 µM and the half-inhibitory concentration (IC50) was 1.48 µM.

As to `O=[N+]([O-])C(=C(NCc1ccccc1)NCc1ccccc1)C(Cl)=C(Cl)Cl`, the EC50 was more than 200 µM and the IC50 was 35.5 µM.

As for `COC(=O)CCSSCCC(=O)OC`, the EC50 is more than 1050 µM and the IC50 is 182 µM.

Turning to `O=[N+]([O-])c1ccc(C2CC(c3ccccc3)=Nc3ccccc3S2)cc1` (configuration not stated), the EC50 was more than 35.5 µM and the IC50 is 5.75 µM.

In the case of `CC(=O)c1ccc2c(c1)CC1(C2)Cc2ccccc2C1=O` (configuration not stated), the EC50 is more than 200 µM and the IC50 amounted to 74.1 µM.

Take `O=C1C(c2ccccc2)=[N+]([O-])c2ccccc21`: the result was inactive.

`CCN(CC)c1cc(OCc2ccccc2)cc2c1[C@H]1COc3cc(OC)ccc3[C@H]1O2`: the outcome was inactive.

Turning to `NC1CC(=O)c2cc(Br)sc21` (configuration not stated), the EC50 was more than 200 µM and the IC50 is more than 200 µM.

With `CCP(CC)(c1ccccc1)=c1c(=O)c(Cl)c(Cl)c(=O)c1=O`, the EC50 is more than 200 µM and the IC50 came out at 27.5 µM.

`CC(C)c1cc(C(C)C)c(S(=O)(=O)N=[N+]=[N-])c(C(C)C)c1`: the EC50 was more than 17 µM and the IC50 is more than 17 µM.

As to `CC(=O)N1c2ccccc2C(C)C1c1[nH]c2ccccc2c1C` (configuration not stated), the EC50 was more than 200 µM and the IC50 was found to be 30.2 µM.

For `N#CC1C(=O)NC(=O)C(C#N)C12CCCc1sccc12` (configuration not stated), the EC50 is more than 871 µM and the IC50 was 832 µM.

Take `CCCCCCCCC1=C(OC)C(=O)c2c(C)ccnc2C1=O`: the outcome was inactive.

`OC(OCC(COC(O)C(Br)Br)(COC(O)C(Br)Br)COC(O)C(Br)Br)C(Br)Br` (configuration not stated): the EC50 is more than 100 µM and the IC50 is more than 100 µM.

`O=C(NCCCCNCCCNC(=O)c1cc(-c2ccccc2)nc2ccccc12)c1cc(-c2ccccc2)nc2ccccc12`: the EC50 is more than 20 µM and the IC50 was 3.16 µM.

`Cn1c(=S)c2c(nc(SCCc3ccccc3)n2CCc2ccccc2)n(C)c1=O`: the EC50 was more than 200 µM and the IC50 turned out to be 29.5 µM.

In the case of `Cc1ccc(/C=C(\C#N)C(=O)c2ccccc2)cc1`, the EC50 is more than 145 µM and the IC50 amounted to 102 µM.

In the case of `Nc1ccc(N=Nc2ccc(-c3ccc(N=Nc4c(S(=O)(=O)O)cc5cc(S(=O)(=O)O)c(N=Nc6ccccc6)c(O)c5c4N)cc3)cc2)c2ccc(S(=O)(=O)O)cc12`, the outcome was inactive.

On to `COC(=O)c1cc2cc(OC)c(OC)cc2cc(C(=O)OC)c1=O`, for which the EC50 was more than 10.7 µM and the IC50 is more than 10.7 µM.

As to `C=C1C(=O)C23C(O)C1CC[C@H]2C12CCCC(C)(COC(C)=O)[C@H]1[C@H](O)[C@]3(O)OC2` (some centres not stated), the EC50 was more than 324 µM and the IC50 worked out at 0.398 µM.

As to `O=C(CC1(O)C(=O)Nc2c(Cl)ccc(Cl)c21)c1ccc(Cl)cc1Cl` (configuration not stated), the EC50 was more than 12.9 µM and the IC50 is more than 12.9 µM.

On to `COc1ccc2nc3c(nc2c1)C(C)(C)C=C3c1ccc(Br)cc1`, for which the EC50 was more than 100 µM and the IC50 was more than 100 µM.

In the case of `CCOC(=O)COc1cccc2c1C(=O)CCO2`, the result was inactive.

As for `CO/C=C/CCCN(C1CCCCC1)C(C#N)c1ccccc1` (configuration not stated), the EC50 is more than 16.6 µM and the IC50 was more than 16.6 µM.

As to `CN(C)c1ccc(/C=C(\C#N)c2ccc(Cl)cc2Cl)cc1`, the EC50 is more than 200 µM and the IC50 came to 3.39 µM.

For the compound `CNC(=O)c1ccc(NC(=O)Nc2cccc(C3=NCCN3)c2)cc1NC(=O)Nc1cccc(C2=NCCN2)c1`, the EC50 is 28.2 µM and the IC50 came out at 178 µM.

Consider `CC(C)(C)OC(=O)CCCCCNC(=O)CCCCCNC(=O)CCC(CN(CC(=O)OCc1ccccc1)CC(=O)OCc1ccccc1)N(CC(=O)OCc1ccccc1)CC(=O)OCc1ccccc1` (configuration not stated), for which the result was inactive.

`COC1/C=C/OC2(C)Oc3c(C)c(O)c4c(O)c(c(/C=N/N5CCCN(C)CC5)c(O)c4c3C2=O)NC(=O)/C(C)=C\C=C\C(C)C(O)C(C)C(O)C(C)C(OC(C)=O)C1C` (configuration not stated): the EC50 was more than 200 µM and the IC50 is 89.1 µM.

In the case of `O=C1c2ccc(O)cc2OC(c2cc(O)c(O)c(O)c2)C1O` (configuration not stated), the EC50 is more than 200 µM and the IC50 came to 11.7 µM.

In the case of `O=[N+]([O-])c1ccc(N=Nc2c(F)cc(NCS(=O)(=O)O)cc2F)cc1`, the EC50 is more than 100 µM and the IC50 was more than 100 µM.

On to `O=C1[C@@H]2[C@@H](c3ccccc3)[C@]2(Cl)C(=O)[C@H]2[C@H](c3ccccc3)[C@@]12Cl`, for which the result was inactive.

With `Cc1n[nH]c(=O)n1N1C(=O)c2ccccc2C1=O`, the EC50 was more than 200 µM and the IC50 was more than 200 µM.

Take `COC(=O)c1cc(C(=O)OC)c(C/C(=N/NC(N)=S)C(=O)Nc2c(C)cccc2C)nc1CC(=Nc1c(C)cccc1C)NNC(N)=S`: the EC50 is more than 200 µM and the IC50 was more than 200 µM.
